Source: PMC7282811
Like-named read-outs stand apart in the source and are kept apart here.

Assays:
H3R = target: T1, H3R (Mus musculus, UniProt P58406); assay: tissue or organelle; set-up: species or system brain tissue of 8-month-old Hdh^Q7/Q7 or Hdh^Q7/Q111 mice; radioligand binding to mouse brain region membranes, KD from saturation and competition curves
T1 construct: gene Hrh3; native receptor, endogenous in mouse brain tissue membranes
Method: (§1) Supplementary file elife-51093-supp2.docx: Supplementary file 2. H3R and D1R binding parameters in different brain regions from 8-month-old Hdh^Q7/Q7 and Hdh^Q7/Q111 mice. Mouse striatal, cortical or hippocampal tissue were homogenized in 50 mM Tris-HCl buffer and ligand binding was performed with membrane suspension (see online methods). Binding parameters from saturation and competition curves were obtained using Grafit software by fitting the binding data to the equation previously deduced (equation (3) in [Gracia et al., 2013]. Data are mean ± SEM of experiments performed per triplicate (n = 6 Hdh^Q7/Q7 and n = 5 Hdh^Q7/Q111). To test whether D1R-H3R heteromers can indeed be targets for treating HD, we investigated their expression and function in the striatum, cerebral cortex and hippocampus of a widely accepted preclinical model of HD, the heterozygous Hdh^Q7/Q111 mutant knock-in mice, and their wild-type Hdh^Q7/Q7 littermates ([Giralt et al., 2012]; [Puigdellívol et al., 2015]). By PLA we confirmed that both Hdh^Q7/Q7 and Hdh^Q7/Q111 mice display D1R-H3R heteromers at 2 months (mo) (Figure 2—figure supplement 1) and four mo (Figure 2A,B) of age in all brain regions tested. […] Heteromer expression was similar in all brain areas and no differences were observed between genotypes at 4 mo of age (Figure 2B). […] Although at 8 mo of age we detected a partial decrease in striatal D1R expression in Hdh^Q7/Q111 compared with Hdh^Q7/Q7 mice using ligand binding experiments (Supplementary file 2), the loss of heteromer expression is not due to a complete loss of receptor expression since by radioligand binding (Supplementary file 2) and mRNA expression analysis (Supplementary file 3) both receptors continue to be expressed.

[1] = target: T2, dopamine D1 receptor (D1R) (Mus musculus, UniProt Q61616); set-up: species or system STHdh^Q7 or STHdh^Q111 mouse striatal cells; radioligand binding to striatal cell membranes, KD from saturation and competition curves; conditions: STHdh^Q111 cell membranes; binder
T2 construct: gene Drd1; native full-length receptor, endogenous in membranes of STHdh^Q7 mouse striatal cells; part may be in D1R-H3R heteromers
T2 sequence (Q61616 whole entry): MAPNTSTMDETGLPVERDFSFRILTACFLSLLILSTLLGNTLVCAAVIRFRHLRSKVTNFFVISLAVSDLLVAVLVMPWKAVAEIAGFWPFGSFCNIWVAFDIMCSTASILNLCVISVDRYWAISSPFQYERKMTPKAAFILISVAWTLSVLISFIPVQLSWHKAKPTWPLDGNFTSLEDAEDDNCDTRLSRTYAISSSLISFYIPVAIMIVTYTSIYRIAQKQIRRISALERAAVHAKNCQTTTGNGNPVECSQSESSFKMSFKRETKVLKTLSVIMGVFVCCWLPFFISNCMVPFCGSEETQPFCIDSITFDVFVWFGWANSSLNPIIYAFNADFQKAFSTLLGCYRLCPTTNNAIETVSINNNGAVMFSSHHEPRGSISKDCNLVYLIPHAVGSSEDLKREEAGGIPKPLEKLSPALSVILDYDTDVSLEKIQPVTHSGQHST
Method: Supplementary file elife-51093-supp1.docx: Supplementary file 1. H3R and D1R binding parameters in STHdh^Q7, STHdh^Q111 cells. Striatal cells were homogenized in 50 mM Tris-HCl buffer and ligand binding was performed with membrane suspension (see materials and methods). Binding parameters from saturation and competition curves were obtained using Grafit software by fitting the binding data to the equation previously deduced (equation (3) in [Gracia et al., 2013]. Data are mean ± SEM of experiments performed per triplicate.

D1R = target: T3, D1R (Mus musculus, UniProt Q61616); assay: tissue or organelle; set-up: species or system brain tissue of 8-month-old Hdh^Q7/Q7 or Hdh^Q7/Q111 mice; radioligand binding to mouse brain region membranes, KD from saturation and competition curves
T3 construct: gene Drd1; native receptor, endogenous in mouse brain tissue membranes
T3 sequence (Q61616 whole entry): as above
Method: as §1

[2] = target: T2, dopamine D1 receptor (D1R); assay: radioligand saturation binding, cell membranes, filtration; conditions: labelled compound; STHdh^Q7 cell membranes; 50 mM Tris-HCl pH 7.4, 10 mM MgCl2, 25 °C; nonspecific with 30 µM unlabelled ligand; read-out: binding parameters
Method: radioligand saturation binding, cell membranes, filtration on dopamine D1 receptor (D1R) | membranes were incubated with increasing free concentrations of [^3H]

[3] = Cortex, 8-month-old Hdh^Q7/Q7 mice
[4] = Hippocampus, 8-month-old Hdh^Q7/Q7 mice
[5] = Hippocampus, 8-month-old Hdh^Q7/Q111 mice
[6] = Striatum, 8-month-old Hdh^Q7/Q7 mice
[7] = Striatum, 8-month-old Hdh^Q7/Q111 mice

T1 sequence (P58406 whole entry): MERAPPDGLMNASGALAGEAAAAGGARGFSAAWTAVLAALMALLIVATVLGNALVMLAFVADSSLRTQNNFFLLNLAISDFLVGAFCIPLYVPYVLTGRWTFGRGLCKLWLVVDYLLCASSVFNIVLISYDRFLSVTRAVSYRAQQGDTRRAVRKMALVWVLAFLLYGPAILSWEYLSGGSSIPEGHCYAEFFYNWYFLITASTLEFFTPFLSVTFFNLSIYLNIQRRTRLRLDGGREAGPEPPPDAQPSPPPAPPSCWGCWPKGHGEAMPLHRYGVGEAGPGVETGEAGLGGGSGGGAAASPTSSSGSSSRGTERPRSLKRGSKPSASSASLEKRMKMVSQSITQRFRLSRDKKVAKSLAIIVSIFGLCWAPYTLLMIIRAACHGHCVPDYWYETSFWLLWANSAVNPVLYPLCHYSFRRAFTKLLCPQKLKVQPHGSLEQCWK

| Kd [1] [nM] | Kd (D1R; [3]) [nM] | Kd (D1R; [4]) [nM] | Kd (D1R; [5]) [nM] | Kd (D1R; [6]) [nM] | Kd (D1R; [7]) [nM] | Kd [2] [nM] | SMILES | Kd (H3R; [3]) [nM] | Kd (H3R; Cortex, 8-month-old Hdh^Q7/Q111 mice) [nM] | Kd (H3R; [4]) [nM] | Kd (H3R; [5]) [nM] | Kd (H3R; [6]) [nM] | Kd (H3R; [7]) [nM] |
| --- | --- | --- | --- | --- | --- | --- | --- | --- | --- | --- | --- | --- | --- |
|  |  |  |  |  |  |  | C[C@@H](N)Cc1c[nH]cn1 [[^3H] R-α-methyl histamine] | 0.22 ± 0.02 | 0.24 ± 0.04 | 0.2 ± 0.01 | 0.37 ± 0.1 | 0.27 ± 0.03 | 0.26 ± 0.03 |
| 0.16 ± 0.08 | 0.05 ± 0.01 | 0.03 ± 0.02 | 0.09 ± 0.07 | 0.17 ± 0.02 | 0.11 ± 0.01 | 0.3 ± 0.1 | CN1CCc2cc(Cl)c(O)cc2[C@@H](c2ccccc2)C1 [[^3H] SCH 23390] |  |  |  |  |  |  |
